The results in this text go back to patent publication US10988465B2, “CXCR4 inhibitors and uses thereof” (X4 Pharmaceuticals, Inc., priority 2016, dated 2021).

Each structure is given as a SMILES string. Where two headings read alike, the source gives them in different places.

The series in a line: MTD, pharmacokinetics and brain penetration after PO administration. It is filed as in vivo, male C57BL/6 mice. Conditions: male; for half-life: MTD mouse, read-out: t½ (converted); for AUC(0-t): C57BL/6, mouse. Here is the method:
All PO dosing solutions were prepared in 50 mM citrate buffer (pH 4.0).
The blood collection was performed as follows: the animal was restrained manually at the designated time points, approximately 500 μL of blood sample was collected via cardiac puncture vein into EDTA-2K tubes. The whole blood needed to be divided into two parts; one part was placed in the tube containing EDTA-2K for plasma generation and the other was used for the hematology assay, respectively. The blood samples for plasma generation were maintained in wet ice first and centrifuged to obtain plasma (2000 g, 4° C., 5 min) within 15 minutes post sampling. The brain collection was performed as follows: a mid-line incision was made in the animal's scalp and the skin was retracted. Using small bone cutters and rongeurs, the skull overlying the brain was removed. The brain was removed using a spatula and rinsed with cold saline. The brain was placed in screw-top tubes, and then stored at −70° C. until analysis. The CSF collection was performed as follows: a mid line incision was made on the neck. The muscle under the skin was cut to expose the cisterna magna. The cisterna magna was penetrated with the sharp end of one capillary (Burn one end of capillary to make it sharp). The CSF was sucked spontaneously into the capillary.
Plasma sample preparation: An aliquot of 30 μL sample was added with 100 μL MeCN containing 100 ng/mL IS (Dexamethasone). The mixture was vortexed for 10 min and centrifuged at 5800 rpm for 10 min. An aliquot of 40 μL supernatant was added to 40 μL H2O and the mixture was vortexed for 5 min. An aliquot of 2 μL supernatant was injected for LC-MS/MS analysis.
An aliquot of 30 μL brain homogenate (brain:PBS=1:3, w/v) sample was added to 100 μL MeCN containing 100 ng/mL IS (Dexamethasone). The mixture was vortexed for 10 min and centrifuged at 5800 rpm for 10 min. An aliquot of 40 μL supernatant was added to 40 μL H2O and the mixture was vortexed for 5 min. An aliquot of 2 μL supernatant was injected for LC-MS/MS analysis.
An aliquot of 3 μL sample was added to a mixture of 6 μL CSF, 9 μL MeOH/H2O (1/1), 40 μL MeCN containing 200 ng/mL IS (Dexamethasone), and 116 μL H2O. The mixture was vortexed for 5 min. An aliquot of 4 μL was injected for LC-MS/MS analysis.
The sample analysis was performed on UPLC-MS/MS-02 (Triple Quad™ 4000) under the following conditions: positive ion, ESI, MRM detection using dexamethasone as internal standard. HPLC conditions: mobile phase A: H2O-0.1% formic acid, mobile phase B: MeCN-0.1% formic acid on: ACQUITY UPLC HSS T3 (2.1×50 mm, 1.8 μm) at 60° C.

On to `Cc1cccnc1[C@@H]1CCC[C@H](c2nc3cccc(N4CCN(C)CC4)c3[nH]2)N1C` (racemic) [I-3, 2-((2R,6S)-1-methyl-6-(3-methylpyridin-2-yl)piperidin-2-yl)-7-(4-methylpiperazin-1-yl)-1H-benzo[d]imidazole], for which the half-life runs as follows: (C57BL/6, in vivo, single administration, D 1-50 mg/kg) 3.3 h; (C57BL/6, plasma, multiple administration, D 5-300 mg/kg) 6.1 h. The AUC(0-t) was determined as 384000 ng·h/mL (brain, multiple administration, D 5-300 mg/kg, read-out: AUClast (b)); 15500 ng·h/mL (brain, single administration, D 1-50 mg/kg, read-out: AUClast (b)); 142000 ng·h/mL (plasma, multiple administration, D 5-300 mg/kg, read-out: AUClast (p)); 7100 ng·h/mL (plasma, single administration, D 1-50 mg/kg, read-out: AUClast (p)).
